Entries after “also recorded” stand apart in the source; their conditions may differ.
Key:
[1] = system: CPT-11 induced diarrhea; assay: CPT-11 induced diarrhea in tumor-bearing mice; assay type: in vivo, Balb/cJ mice; conditions: 3 mg/kg/day oral with CPT-11 50 mg/kg/day i.p.; CT26 tumor-bearing mice (FIG. 6A)
Experimental: (§1) FIGS. 6A and B show the effects of 17 (TCH-3511) on diarrhea and antitumor activity of CPT-11. Mice were inoculated with CT26 cells on day −7. Either water or 17 (TCH-3511) 3 mg/kg/day was orally administrated per day throughout the experimental period (day 0 onward). Mice were given daily intraperitoneal either CPT-11 treatment (50 mg/kg/day) or saline staring on day 2. Diarrhea level and tumor size was scored every other day.
(§2) 17 (TCH-3511) was given to mice to test whether inhibition of intestinal βG by bacterial inhibitor 17 (TCH-3511) eliminates CPT-11-induced diarrhea and maintain the therapeutic efficacy in combination with CPT-11 in tumor-bearing mice. CT26 murine colon adenocarcinoma cells were s.c. implanted into Balb/cJ mice. After solid tumor formed, 17 (TCH-3511) (3 mg/kg/day) was provided orally along with intraperitoneal injection of CPT-11 (50 mg/kg/day). Signs of diarrhea were according to stool forms and the perianal staining of the anus.

[2] = target: T1, human liver-glucuronidase (hβG) (Homo sapiens, UniProt P08236); assay: Inhibition of purified recombinant hβG activity (pNPG substrate, OD420); assay type: biochemical; conditions: 10 μM; purified recombinant hβG, pNPG; means ± S.D. of at least three separate experiments; read-out: Percent activity of human liver-glucuronidase at 10 μM (%)
T1 sequence (P08236 23-651): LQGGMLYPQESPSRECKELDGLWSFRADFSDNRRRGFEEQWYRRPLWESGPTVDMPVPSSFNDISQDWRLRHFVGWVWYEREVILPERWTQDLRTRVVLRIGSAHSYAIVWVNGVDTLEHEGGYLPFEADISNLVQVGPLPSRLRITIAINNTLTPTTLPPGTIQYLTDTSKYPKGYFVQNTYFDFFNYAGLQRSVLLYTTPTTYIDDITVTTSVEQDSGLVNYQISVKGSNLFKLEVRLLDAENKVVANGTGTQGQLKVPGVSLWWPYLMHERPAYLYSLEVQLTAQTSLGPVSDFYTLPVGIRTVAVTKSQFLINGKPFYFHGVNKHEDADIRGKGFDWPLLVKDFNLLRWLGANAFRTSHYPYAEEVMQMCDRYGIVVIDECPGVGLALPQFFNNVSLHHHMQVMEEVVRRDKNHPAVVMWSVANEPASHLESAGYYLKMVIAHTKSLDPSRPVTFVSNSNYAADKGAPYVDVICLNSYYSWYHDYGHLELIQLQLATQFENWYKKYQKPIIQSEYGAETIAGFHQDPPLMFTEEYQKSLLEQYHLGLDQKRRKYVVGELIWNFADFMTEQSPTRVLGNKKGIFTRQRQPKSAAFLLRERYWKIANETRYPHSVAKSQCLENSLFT
Experimental: (§3) The pyrazolo[4,3-c]quinoline derivatives were examined for their inhibition against eβG or hβG activity. Purified recombinant eβG or hβG proteins were incubated with serial dilution of the inhibitors, respectively. The βG activity was determined by color development of a βG substrate, pNPG. The hydrolysis product of pNPG, PNP was measured by OD420.

[3] = system: intestinal βG activity; assay: In vivo image of intestinal β-glucuronidase activity (FDGlcU pro-probe); parameters: species or system Balb/cJ mice; conditions: mice
Experimental: 17 (TCH-3511) or 32 (TCH-3510) was examined for its inhibition against intestinal βG activity in mice by in vivo image of eβG activity. 5 (TCH-3562), 17 (TCH-3511) or 32 (TCH-3510) was dissolved in ddH2O. Healthy 6-10 week old female Balb/cJ mice were oral administrated with 5 (TCH-3562), 17 (TCH-3511), 32 (TCH-3510) or ddH2O per day (60 μg/200 μl) for five consecutive days. FDGlcU, a βG fluorescent pro-probe was oral feed at the sixth day. The βG activity was detected by in vivo optical imaging system.

[4] = target: T2, endogenous eβG activity (Escherichia coli, UniProt P05804); assay: Endogenous β-glucuronidase activity assay in BL21 E. coli cells; assay type: cell-based; conditions: at both low (10 μM) or high concentration (50 μM) (FIG. 2)
T2 construct: endogenous in cells; host or cells: BL21 E. coli
T2 sequence (P05804 whole entry): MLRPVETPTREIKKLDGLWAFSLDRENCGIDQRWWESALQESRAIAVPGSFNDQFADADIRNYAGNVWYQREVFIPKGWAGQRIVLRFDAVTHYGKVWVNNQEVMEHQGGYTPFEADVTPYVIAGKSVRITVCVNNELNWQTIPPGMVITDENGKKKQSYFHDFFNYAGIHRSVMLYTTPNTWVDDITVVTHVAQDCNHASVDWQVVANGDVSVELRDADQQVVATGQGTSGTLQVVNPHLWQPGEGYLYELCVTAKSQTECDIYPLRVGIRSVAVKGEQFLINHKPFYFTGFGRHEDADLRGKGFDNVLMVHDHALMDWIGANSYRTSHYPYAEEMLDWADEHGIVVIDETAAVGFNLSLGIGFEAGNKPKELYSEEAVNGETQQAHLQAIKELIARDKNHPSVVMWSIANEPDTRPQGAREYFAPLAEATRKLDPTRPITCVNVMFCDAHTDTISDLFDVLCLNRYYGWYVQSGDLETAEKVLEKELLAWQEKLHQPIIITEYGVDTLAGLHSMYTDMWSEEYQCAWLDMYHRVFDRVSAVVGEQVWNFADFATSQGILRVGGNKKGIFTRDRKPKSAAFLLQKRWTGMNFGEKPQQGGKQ
Experimental: The pyrazolo[4,3-c]quinoline derivatives were examined for their inhibition against endogenous eβG activity. This assay is similar with the in vitro assay. BL21 E. coli cells were grown to an OD600 of 0.35 in LB medium. E. coli were 4 times diluted and incubated with each inhibitor. The endogenous eβG activity was measured by detecting PNP as described.

[5] = system: TOP10 E. coli cells; assay: E. coli growth assay (OD600); assay type: cell-based; conditions: 100 μM; OD600 at 6 hour after treatment; TOP10 E. coli (FIG. 4)
Experimental: The pyrazolo[4,3-c]quinoline derivatives were examined for effects on the growth of E. coli. TOP10 E. coli cells were grown to an OD600 of 0.35 in LB medium and treated with each inhibitor. E. coli cell cultures were monitored by reading OD600 at 6 hour after treatment. The cell viability were compared to non-inhibitor control group and shown in % control.

[6] = system: DMH induced tumorigenesis in the intestine; assay: DMH induced tumorigenesis in the intestine; assay type: in vivo, C57BL/6J-APC^MIN/J mice
Experimental: Either water or 17 (TCH-3511) 3 mg/kg/day was orally administrated three times per week throughout the experimental period (8 week). Mice were given intraperitoneal DMH (30 mg/kg/week).
17 (TCH-3511) was given to C57BL/6J-APC^MIN/J mice to check whether prevent DMH-induced intestinal damage and tumorigenesis. 17 (TCH-3511) (3 mg/kg, 3 times/week) was provided orally along with intraperitoneal injection of DMH (30 mg/kg, once/week). After 8 weeks of treatment, mice were sacrificed and the tumor in the intestine was examined.

[7] = target: E. coli β-glucuronidase (eβG) (Escherichia coli, UniProt P05804); assay: Inhibition of purified recombinant eβG activity (pNPG substrate, OD420); assay type: biochemical
Sequence of E. coli β-glucuronidase (eβG) (P05804 whole entry): as above
Experimental: as §3

[8] = system: CT26 murine colon adenocarcinoma cells; assay: Anti-tumor efficacy of CPT-11 in CT26 tumor-bearing mice; assay type: in vivo, Balb/cJ mice; conditions: 3 mg/kg/day oral with CPT-11 50 mg/kg/day i.p.; CT26 tumors (FIG. 6B)
Experimental: as §1, §2

In the case of Nc1n[nH]c2c1c(Nc1ccc(F)cc1)nc1ccccc12 [Compound 17, 3-Amino-4-(4-fluorophenylamino)-1H-pyrazolo[4,3-c]quinoline], the “Effect on CPT-11 induced diarrhea” value [1] is reported as “can reduce CPT-11 induced diarrhea”, the remaining activity at 10 µM [2] is reported as 99 ± 1.41% and the “Inhibition of intestinal βG activity, comparison between compounds” value ([3]; in vivo optical imaging (FIG. 5B)) is reported as “better than 32 (THC-3510)”. For the same compound, the “Inhibition of intestinal βG activity (fluorescence signal in the intestine)” value ([3]; oral 60 μg/200 μl per day for five days, FDGlcU on sixth day (FIG. 5A), listed as 17 (TCH-3511)) was “significantly reduced the fluorescence signal in the intestine; also recorded: significantly inhibit intestinal βG activity”, the “Inhibition efficacy of endogenous eβG activity compared with βG-Inh” value [4] was “better inhibition efficacy of endogenous eβG activity than βG-Inh” and the “Effects on E. coli growth” value [5] was “no effects on E. coli growth”. The melting point was 266 to 268 °C, the “Number of tumors in the intestine” value ([6]; 3 mg/kg oral 3 times/week with DMH 30 mg/kg i.p. once/week, after 8 weeks (FIG. 7), DMH only group more than 26) was “six” and the “Effect on DMH-induced intestinal damage and tumorigenesis” value ([6]; 3 mg/kg oral 3 times/week with DMH 30 mg/kg/week i.p., 8 weeks (FIG. 7), listed as 17 (TCH-3511)) was “can reduce DMH-induced intestinal damage and prevent tumorigenesis”. For the same compound, the “Inhibition efficacy of eβG activity compared with βG-Inh” value ([7]; FIG. 1) was “better inhibition efficacy of eβG activity than βG-Inh”, the remaining activity at 10 µM ([7]; read-out: Percent activity of E. coli-glucuronidase at 10 μM (%)) was 5 ± 1% and the “Selective inhibition of eβG versus hβG (in words)” value ([7]; recombinant eβG and hβG, serial dilution of inhibitors (FIG. 1)) was “selectively inhibited eβG activity but not hβG”. The “Effect on anti-tumor efficacy of CPT-11 treatment” value [8] was “no effects on the anti-tumor efficacy of CPT-11 treatment”.

Source: US11052072B2, “Pyrazolo[4,3-C] quinoline derivatives for inhibition of β-glucuronidase” (Kaohsiung Medical University, priority 2015, dated 2021)
